In ChEMBL document CHEMBL1143085, “Synthesis and in vitro antimycobacterial activity of B-ring modified diaryl ether InhA inhibitors” (Bioorg Med Chem Lett, 2008):
pIC50, pKi: −log10 of the molar value. In brackets after ≈: the same amount, converted by molar mass.

Assays:
[1] = Partition coefficient, log P of the compound; assay type: physicochemical; conditions: octanol/water
[2] = biological target: T1, Enoyl-[acyl-carrier-protein] reductase [NADH] (Mycobacterium tuberculosis, UniProt P9WGR1)
T1 sequence (P9WGR1 whole entry): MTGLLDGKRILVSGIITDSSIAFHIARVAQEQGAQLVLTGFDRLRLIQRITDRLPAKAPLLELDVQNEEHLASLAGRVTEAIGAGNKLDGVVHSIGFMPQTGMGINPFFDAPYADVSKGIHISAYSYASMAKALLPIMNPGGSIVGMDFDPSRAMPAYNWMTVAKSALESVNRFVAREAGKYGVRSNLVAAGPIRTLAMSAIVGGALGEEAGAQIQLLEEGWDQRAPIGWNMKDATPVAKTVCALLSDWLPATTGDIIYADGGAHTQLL
Description: Inhibition of Mycobacterium tuberculosis H37RV InhA

[3] = test system: Mycobacterium tuberculosis; assay: Antimicrobial activity against Mycobacterium tuberculosis H37RV; assay type: functional
[4] = biological target: T1, Enoyl-[acyl-carrier-protein] reductase [NADH]; assay: Inhibition of 100 nM Mycobacterium tuberculosis H37RV InhA

CCCCCCc1ccc(Oc2ncccn2)c(O)c1
logP ([1]; read-out: LogP): 4.46 | pKi [2]: 9.00 | MIC90 [3]: 100 µg/mL (≈ 367 µM)

CCCCCCc1ccc(Oc2cnccn2)c(O)c1
logP ([1]; read-out: LogP): 4.76 | pKi [2]: 9.00 | MIC90 [3]: 6.25 µg/mL (≈ 22.9 µM)

CCCCCCc1ccc(Oc2nc(OC)cc(OC)n2)c(O)c1
pKi [2]: 9.00 | MIC90 [3]: 100 µg/mL (≈ 301 µM)

CCCCCCc1ccc(Oc2ccncc2)c(O)c1
logP ([1]; read-out: LogP): 4.93 | pKi [2]: 9.00 | MIC90 [3]: 3.13 µg/mL (≈ 11.5 µM)

CCCCCCc1ccc(Oc2ccc(NC(=O)c3ccno3)cc2)c(O)c1
logP ([1]; read-out: LogP): 5.15 | pKi [2]: 9.00 | MIC90 [3]: > 200 µg/mL

CCCCCCc1ccc(Oc2ccc(CN3CCN(C)CC3)cc2)c(O)c1
pKi [2]: 9.00 | MIC90 [3]: > 100 µg/mL

CCCCCCc1ccc(Oc2ccc(NC(=O)C(=O)O)cc2)c(O)c1
pKi [2]: 9.00 | MIC90 [3]: > 200 µg/mL

CCCCCCc1ccc(Oc2ccc(NC(C)=O)cc2)c(O)c1
pKi [2]: 9.00 | MIC90 [3]: 50 µg/mL (≈ 153 µM)

CCCCCCc1ccc(Oc2cccc(NC(=O)C(=O)O)c2)c(O)c1
pIC50 [4]: 6.24 | pKi [2]: 9.00 | MIC90 [3]: 130 µg/mL (≈ 364 µM)

CCCCCCc1ccc(Oc2ccc(N)cc2)c(O)c1
logP ([1]; read-out: LogP): 4.93 | MIC90 [3]: 12.5 µg/mL (≈ 43.8 µM)

CCCCCCc1ccc(Oc2ccccc2NC(C)=O)c(O)c1
logP ([1]; read-out: LogP): 5.28 | pIC50 [4]: 5.81 | pKi [2]: 9.00 | MIC90 [3]: > 200 µg/mL

CCCCCCc1ccc(Oc2ccccc2[N+](=O)[O-])c(O)c1
logP [1]: 5.5 | pKi [2]: 9.00 | MIC90 [3]: 12.5 µg/mL (≈ 39.6 µM)

CCCCCCc1ccc(Oc2cccc([N+](=O)[O-])c2)c(O)c1
MIC90 [3]: 12.5 µg/mL (≈ 39.6 µM)

CCCCCCc1ccc(Oc2ccc([N+](=O)[O-])cc2)c(O)c1
logP [1]: 5.64 | pIC50 [4]: 7.05 | pKi [2]: 9.00 | MIC90 [3]: 25 µg/mL (≈ 79.3 µM)

CCCCCCc1ccc(Oc2ccccc2N)c(O)c1
logP ([1]; read-out: LogP): 5.27 | MIC90 [3]: 3.13 µg/mL (≈ 11 µM)

CCCCCCc1ccc(Oc2ccccn2)c(O)c1
logP ([1]; read-out: LogP): 5.06 | pIC50 [4]: 4.94 | pKi [2]: 9.00

CCCCCCc1ccc(Oc2ccccc2)c(O)c1
logP ([1]; read-out: LogP): 5.76 | pKi [2]: 9.00 | MIC90 [3]: 2.1 µg/mL (≈ 7.77 µM)

CCCCCCc1ccc(Oc2cccc(NC(C)=O)c2)c(O)c1
pIC50 [4]: 5.25 | pKi [2]: 9.00 | MIC90 [3]: 100 µg/mL (≈ 305 µM)

CCCCCCc1ccc(Oc2cccc(N)c2)c(O)c1
pKi [2]: 9.00 | MIC90 [3]: 100 µg/mL (≈ 350 µM)

CCCCCCc1ccc(Oc2cccc(NC(=O)c3ccno3)c2)c(O)c1
logP ([1]; read-out: LogP): 5.22 | pIC50 [4]: 5.92 | pKi [2]: 9.00 | MIC90 [3]: > 200 µg/mL

CCCCCCc1ccc(Oc2cccnc2)c(O)c1
pKi [2]: 9.00 | MIC90 [3]: 3.13 µg/mL (≈ 11.5 µM)

CCCCCCc1ccc(Oc2ccccc2NC(=O)C(=O)O)c(O)c1
pIC50 [4]: 5.63 | pKi [2]: 9.00 | MIC90 [3]: 100 µg/mL (≈ 280 µM)

CCCCCCc1ccc(Oc2ccccc2CN2CCN(C)CC2)c(O)c1
pKi [2]: 9.00

CCCCCCc1ccc(Oc2ccccc2NC(=O)c2ccno2)c(O)c1
logP ([1]; read-out: LogP): 5.76 | pKi [2]: 9.00 | MIC90 [3]: > 200 µg/mL

CCCCCCc1ccc(Oc2ncccn2)c(OC)c1
pKi [2]: 9.00 | MIC90 [3]: 75 µg/mL (≈ 262 µM)
